In experiment [1] the target is T1, SARS‐CoV‐2 Nsp15 (Severe acute respiratory syndrome coronavirus 2, UniProt P0DTD1). Put plainly: biochemical. The class given is biochemical. The conditions noted are these: for loss of the inhibition potency in L‐cysteine buffer: 1 mM L‐cysteine buffer compared with DTT buffer; for inhibition at 10 µM: read-out: Inhibition % +L-Cys 10 µM.
In experiment [2] the target is T1, SARS‐CoV‐2 Nsp15. Put plainly: biochemical.
Where [3] appears, read: 1 mM DTT buffer, confidence interval in brackets, read-out: IC50 + DTT (μM) (CI in μM).
Setting [4] is: DTT buffer (Table S1), read-out: IC50 +DTT.
Setting [5] is: hit confirmation, 10 µM, DTT buffer.
Where [6] appears, read: primary screen, 10 µM (Table S1).
The mark [7] stands for this setting: primary screen, 10 μM compound, 1 mM DTT buffer, normalized to 50 μM Congo red (100%) and DMSO (0%).
Where [8] appears, read: 1 mM L-cysteine buffer, confidence interval in brackets, read-out: IC50 + L‐Cys (μM) (CI in μM).
The mark [9] stands for this setting: L-cysteine buffer (Table S1), read-out: IC50 +L-Cys.
Where [10] appears, read: hit confirmation, 10 µM, DTT buffer, read-out: HC inhibition % +DTT 10 µM.
The mark [11] stands for this setting: primary screen, 10 µM (Table S1), read-out: PS Inhibition % 10 µM.
The mark [12] stands for this setting: primary screen, 10 μM compound, 1 mM DTT buffer, normalized to 50 μM Congo red (100%) and DMSO (0%), read-out: PS inhibition % 10 μM (single point measurement).

The source of these data is PMC12079475, “Identification, validation, and characterization of approved and investigational drugs interfering with the SARS‐CoV‐2 endoribonuclease Nsp15” (Protein Science : A Publication of the Protein Society, 2025).

Where a name gives a salt, the structure may show the parent alone. Read-outs that look alike come from different tables or passages of the source.

On to `COc1cccc(C=NCCN=Cc2cccc(OC)c2[O-])c1[O-].[Cl-].[Mn+3]` [EUK 134], for which, in experiment [1] (10 µM, L-cysteine buffer), the “Inhibition % +L-Cys 10 µM” value is given as 16,41%. Moreover, the “loss of the inhibition potency in L‐cysteine buffer” value (shortened to “loss of the inhibition potency”) in experiment [1] is reported as “more than 50%”. Moreover, the values for the IC50 in experiment [2] (setting [3]) and in experiment [2] (setting [4]) were 3.3 µM and 3.34 µM, respectively. Besides, the “HC inhibition % +DTT 10 µM” value in experiment [2] (setting [5]) was 56,68%. The “PS Inhibition % 10 µM” value in experiment [2] (setting [6]) is recorded as 70,85%. For the same compound, in experiment [2] (setting [7]), the “PS inhibition % 10 μM (single point measurement)” value (“PS inhibition % 10 μM” below) amounted to 70.9%.

As to `Cc1cc2nc3ccc(N(C)C)cc3[s+]c2cc1N` [Tolonium chloride], the inhibition at 10 µM in experiment [1] (10 µM, L-cysteine buffer) is 77.8%; in experiment [2] (setting [10]), 76.5%; in experiment [2] (setting [11]) it was 72%; in experiment [2] (setting [12]), 72%. Besides, the IC50 amounted to 1.3 µM in experiment [1] (setting [8]), 1.34 µM in experiment [1] (setting [9]), 1.7 µM in experiment [2] (setting [3]) and 1.65 µM in experiment [2] (setting [4]).

For BVT‐948, the “Inhibition % +L-Cys 10 µM” value in experiment [1] (10 µM, L-cysteine buffer) is -3,98%. Also, in experiment [1], the “loss of the inhibition potency” value is “more than 50%”. In addition, the IC50 is 0.4 µM in experiment [2] (setting [3]) and 0.41 µM in experiment [2] (setting [4]). In addition, the “HC inhibition % +DTT 10 µM” value in experiment [2] (setting [5]) was 84,54%. Also, in experiment [2] (setting [6]), the “PS Inhibition % 10 µM” value is given as 72,99%. The “PS inhibition % 10 μM” value in experiment [2] (setting [7]) worked out at 72.9%.

As for `CC1(C)CCC2=C(O1)C(=O)c1ccccc1C2=O` [alphaLapachone], the inhibition at 10 µM was 28.6% in experiment [1] (10 µM, L-cysteine buffer); 82.8% in experiment [2] (setting [10]); 76% in experiment [2] (setting [11]); 76% in experiment [2] (setting [12]). Also, in experiment [1], the “loss of the inhibition potency” value is listed as “more than 50%”. Further, the results for the IC50 in experiment [2] (setting [3]) and in experiment [2] (setting [4]) were 2.2 µM and 2.15 µM, respectively.

Take `CCOC(=O)CCNc1cc(N2CCc3ccccc3CC2)nc(-c2ccccn2)n1` [GSK J4 HCl]: the inhibition at 10 µM in experiment [1] (10 µM, L-cysteine buffer) came out at 77.9%; in experiment [2] (setting [10]), 82.2%; in experiment [2] (setting [11]), 75.8%; in experiment [2] (setting [12]) it was 75.8%. Moreover, the IC50 in experiment [1] (setting [8]) was 3.8 µM; in experiment [1] (setting [9]), 3.81 µM; in experiment [2] (setting [3]) it was 5.5 µM; in experiment [2] (setting [4]) it was 5.48 µM.

As to `COc1cccc2c1C(=O)c1c(O)c3c(c(O)c1C2=O)C[C@@](O)(C(=O)CO)C[C@@H]3O[C@H]1C[C@H](N2CCO[C@H](OC)C2)[C@H](O)[C@H](C)O1` [Nemorubicin], the inhibition at 10 µM in experiment [1] (10 µM, L-cysteine buffer) turned out to be 69%; in experiment [2] (setting [10]), 69.2%; in experiment [2] (setting [11]), 65.2%; in experiment [2] (setting [12]) it was 65.2%. Also, the half-inhibitory concentration (IC50) in experiment [1] (setting [8]) was determined as 1.3 µM; in experiment [2] (setting [3]) it was 2.6 µM; in experiment [2] (setting [4]), 2.61 µM.

On to `COc1cc2c(cc1OC)CN(CCc1ccc(NC(=O)c3cccc4c(=O)c5cccc(OC)c5[nH]c34)cc1)CC2` [Elacridar], for which the inhibition at 10 µM in experiment [1] (10 µM, L-cysteine buffer) was 15.9%; in experiment [2] (setting [10]), 72.7%; in experiment [2] (setting [11]), 68.3%; in experiment [2] (setting [12]), 68.3%. The “loss of the inhibition potency” value in experiment [1] is listed as “more than 50%”. Further, the IC50 in experiment [2] (setting [3]) was 4.9 µM; in experiment [2] (setting [4]), 4.99 µM.

As for `COc1cccc2c1C(=O)c1c(O)c3c(c(O)c1C2=O)C[C@@](O)(C(=O)CO)C[C@@H]3O[C@H]1C[C@H](N)[C@H](O)[C@H](C)O1` [Doxorubicin], the IC50 in experiment [1] (IC50 + L‐Cys (μM) (CI in μM)) worked out at 2.3 µM; in experiment [1] (IC50 +L-Cys (µM)), 2.26 µM; in experiment [2] (IC50 + DTT (μM) (CI in μM)), 3.7 µM; in experiment [2] (IC50 +DTT (µM)), 3.69 µM.

As for `Oc1ccc2ccccc2c1SSc1c(O)ccc2ccccc12` [IPA‐3], the “Inhibition % +L-Cys 10 µM” value in experiment [1] is recorded as 51,34%. In addition, in experiment [2], the “HC inhibition % +DTT 10 µM” value is on record as 89,23%, the “PS Inhibition % 10 µM” value was 86,58% and the “PS inhibition % 10 μM” value was 86.6%. In addition, the IC50 in experiment [2] (read-out: IC50 + DTT (μM) (CI in μM)) came out at 0.9 µM. Moreover, the IC50 in experiment [2] (read-out: IC50 +DTT) was determined as 0.99 µM.

For the compound `C/C(=N\NC(=N)N)c1cc(NC(=O)CCCCCCCCC(=O)Nc2cc(/C(C)=N/NC(=N)N)cc(/C(C)=N/NC(=N)N)c2)cc(/C(C)=N/NC(=N)N)c1` [Semapimod], the “Inhibition % +L-Cys 10 µM” value in experiment [1] (10 µM, L-cysteine buffer) is listed as 100,99%. For the same compound, the 50% inhibitory concentration (IC50) was determined as 1 µM in experiment [1] (setting [8]), 1.01 µM in experiment [1] (setting [9]), 0.6 µM in experiment [2] (setting [3]) and 0.61 µM in experiment [2] (setting [4]). For the same compound, in experiment [2] (setting [5]), the “HC inhibition % +DTT 10 µM” value is on record as 99,81%. The “PS Inhibition % 10 µM” value in experiment [2] (setting [6]) was 106,91%. For the same compound, the “PS inhibition % 10 μM” value in experiment [2] (setting [7]) is 106.9%.

The IC50 is the point on the concentration scale where inhibition reaches its midpoint. As a reminder, the inhibition is the change of the read-out against control, counted positive when it falls.
